Measured values: ChEMBL document CHEMBL3244053, “Structural modification study of bis(substituted aminoalkylamino)anthraquinones. An evaluation of the relationship of the [2-[(2-hydroxyethyl)amino]ethyl]amino side chain with antineoplastic activity” (1979)
Active and inactive are the calls of the source. The rule behind the calls is not given here.

Assays:
P388 [1] = assay: Antineoplastic activity against mouse P388 cells allografted in CDF1 mouse at 10 mg/kg qd for 9 days relative to control; type: functional
L1210 [2] = assay: Antineoplastic activity against mouse L1210 cells allografted in CDF1 mouse assessed as survival at 15 mg/kg qd for 9 days; type: functional, organism-based; set-up: dose 15 mg/kg
L1210 [3] = assay: Antineoplastic activity against mouse L1210 cells allografted in CDF1 mouse assessed as survival at 7.5 mg/kg qd for 9 days; type: functional, organism-based; set-up: dose 7.5 mg/kg
P388 [4] = assay: Antineoplastic activity against mouse P388 cells allografted in CDF1 mouse at 5 mg/kg qd for 9 days relative to control; type: functional
P388 [5] = assay: Antineoplastic activity against mouse P388 cells allografted in CDF1 mouse assessed as survival at 2.5 mg/kg qd for 9 days; type: functional, organism-based; set-up: dose 2.5 mg/kg
P388 [6] = assay: Antineoplastic activity against mouse P388 cells allografted in CDF1 mouse at 20 mg/kg qd for 9 days relative to control; type: functional
B16 [7] = assay: Antineoplastic activity against mouse B16 cells allografted in BDF1 mouse assessed as survival at 15 mg/kg qd for 9 days; type: functional, organism-based; set-up: dose 15 mg/kg
Colon 26 [8] = assay: Antineoplastic activity against mouse Colon 26 cells allografted in CDF1 mouse at 7.5 mg/kg qd for 9 days relative to control; type: functional
P388 [9] = assay: Antineoplastic activity against mouse P388 cells allografted in CDF1 mouse at 2.5 mg/kg qd for 9 days relative to control; type: functional
B16 [10] = assay: Antineoplastic activity against mouse B16 cells allografted in BDF1 mouse assessed as survival at 3.75 mg/kg qd for 9 days; type: functional, organism-based; set-up: dose 3.75 mg/kg
B16 [11] = assay: Antineoplastic activity against mouse B16 cells allografted in BDF1 mouse at 7.5 mg/kg qd for 9 days relative to control; type: functional
B16 [12] = assay: Antineoplastic activity against mouse B16 cells allografted in BDF1 mouse at 30 mg/kg qd for 9 days relative to control; type: functional
P388 [13] = assay: Antineoplastic activity against mouse P388 cells allografted in CDF1 mouse assessed as survival at 20 mg/kg qd for 9 days; type: functional, organism-based; set-up: dose 20 mg/kg
Colon 26 [14] = assay: Antineoplastic activity against mouse Colon 26 cells allografted in CDF1 mouse at 15 mg/kg qd for 9 days relative to control; type: functional
B16 [15] = assay: Antineoplastic activity against mouse B16 cells allografted in BDF1 mouse at 1.88 mg/kg qd for 9 days relative to control; type: functional
L1210 [16] = assay: Antineoplastic activity against mouse L1210 cells allografted in CDF1 mouse at 3.75 mg/kg qd for 9 days relative to control; type: functional
L1210 [17] = assay: Antineoplastic activity against mouse L1210 cells allografted in CDF1 mouse at 1.88 mg/kg qd for 9 days relative to control; type: functional
L1210 [18] = assay: Antineoplastic activity against mouse L1210 cells allografted in CDF1 mouse at 7.5 mg/kg qd for 9 days relative to control; type: functional
B16 [19] = assay: Antineoplastic activity against mouse B16 cells allografted in BDF1 mouse at 3.75 mg/kg qd for 9 days relative to control; type: functional
Colon 26 [20] = assay: Antineoplastic activity against mouse Colon 26 cells allografted in CDF1 mouse assessed as survival at 7.5 mg/kg qd for 9 days; type: functional, organism-based; set-up: dose 7.5 mg/kg
L1210 [21] = assay: Antineoplastic activity against mouse L1210 cells allografted in CDF1 mouse assessed as survival at 1.88 mg/kg qd for 9 days; type: functional, organism-based; set-up: dose 1.88 mg/kg
Colon 26 [22] = assay: Antineoplastic activity against mouse Colon 26 cells allografted in CDF1 mouse assessed as survival at 1.88 mg/kg qd for 9 days; type: functional, organism-based; set-up: dose 1.88 mg/kg
B16 [23] = assay: Antineoplastic activity against mouse B16 cells allografted in BDF1 mouse assessed as survival at 7.5 mg/kg qd for 9 days; type: functional, organism-based; set-up: dose 7.5 mg/kg
B16 [24] = assay: Antineoplastic activity against mouse B16 cells allografted in BDF1 mouse assessed as survival at 1.88 mg/kg qd for 9 days; type: functional, organism-based; set-up: dose 1.88 mg/kg
Colon 26 [25] = assay: Antineoplastic activity against mouse Colon 26 cells allografted in CDF1 mouse assessed as survival at 3.75 mg/kg qd for 9 days; type: functional, organism-based; set-up: dose 3.75 mg/kg
P388 [26] = assay: Antineoplastic activity against mouse P388 cells allografted in CDF1 mouse assessed as survival at 5 mg/kg qd for 9 days; type: functional, organism-based; set-up: dose 5 mg/kg
B16 [27] = assay: Antineoplastic activity against mouse B16 cells allografted in BDF1 mouse at 15 mg/kg qd for 9 days relative to control; type: functional
B16 [28] = assay: Antineoplastic activity against mouse B16 cells allografted in BDF1 mouse assessed as survival at 30 mg/kg qd for 9 days; type: functional, organism-based; set-up: dose 30 mg/kg
L1210 [29] = assay: Antineoplastic activity against mouse L1210 cells allografted in CDF1 mouse at 15 mg/kg qd for 9 days relative to control; type: functional
P388 [30] = assay: Antineoplastic activity against mouse P388 cells allografted in CDF1 mouse assessed as survival at 10 mg/kg qd for 9 days; type: functional, organism-based; set-up: dose 10 mg/kg
L1210 [31] = assay: Antineoplastic activity against mouse L1210 cells allografted in CDF1 mouse assessed as survival at 3.75 mg/kg qd for 9 days; type: functional, organism-based; set-up: dose 3.75 mg/kg
Colon 26 [32] = assay: Antineoplastic activity against mouse Colon 26 cells allografted in CDF1 mouse at 3.75 mg/kg qd for 9 days relative to control; type: functional
Colon 26 [33] = assay: Antineoplastic activity against mouse Colon 26 cells allografted in CDF1 mouse assessed as survival at 15 mg/kg qd for 9 days; type: functional, organism-based; set-up: dose 15 mg/kg
Colon 26 [34] = assay: Antineoplastic activity against mouse Colon 26 cells allografted in CDF1 mouse at 1.88 mg/kg qd for 9 days relative to control; type: functional

With `O=C1c2ccccc2C(=O)c2c(NCCNCCO)ccc(O)c21` as the compound, how does the T/C (P388 [1]) read?
The T/C was 342%.

What about the Activity (L1210 [2]) of the same compound?
The Activity was “Active”.

What about the Activity (L1210 [3]) of the same compound?
Its Activity is “Active”.

And the T/C (P388 [4])?
Its T/C is 226%.

And the Activity (P388 [5])?
Its Activity is “Active”.

And the T/C (P388 [6])?
Its T/C is 178%.

What about the Activity (B16 [7]) of the same compound?
The Activity was “Active”.

What about the T/C (Colon 26 [8]) of the same compound?
Its T/C is 196%.

What about the T/C (P388 [9]) of the same compound?
Its T/C is 216%.

And the Activity (B16 [10])?
The Activity was “Active”.

And the T/C (B16 [11])?
The T/C was 254%.

What about the T/C (B16 [12]) of the same compound?
Its T/C is 326%.

And the Activity (P388 [13])?
The Activity was “Active”.

What about the T/C (Colon 26 [14]) of the same compound?
The T/C was 182%.

And the T/C (B16 [15])?
The T/C was 157%.

What about the T/C (L1210 [16]) of the same compound?
Its T/C is 147%.

What about the T/C (L1210 [17]) of the same compound?
Its T/C is 136%.

And the T/C (L1210 [18])?
The T/C was 193%.

And the T/C (B16 [19])?
Its T/C is 201%.

What about the Activity (Colon 26 [20]) of the same compound?
The Activity was “Active”.

And the Activity (L1210 [21])?
Its Activity is “Active”.

And the Activity (Colon 26 [22])?
The Activity was “Active”.

What about the Activity (B16 [23]) of the same compound?
Its Activity is “Active”.

What about the Activity (B16 [24]) of the same compound?
Its Activity is “Active”.

What about the Activity (Colon 26 [25]) of the same compound?
Its Activity is “Active”.

And the Activity (P388 [26])?
The Activity was “Active”.

And the T/C (B16 [27])?
The T/C was 271%.

And the Activity (B16 [28])?
The Activity was “Active”.

And the T/C (L1210 [29])?
Its T/C is 151%.

And the Activity (P388 [30])?
Its Activity is “Active”.

What about the Activity (L1210 [31]) of the same compound?
Its Activity is “Active”.

What about the T/C (Colon 26 [32]) of the same compound?
The T/C was 177%.

And the Activity (Colon 26 [33])?
Its Activity is “Active”.

And the T/C (Colon 26 [34])?
Its T/C is 162%.
